Assay type in all cases: functional, cell-based
In one assay the test system is MDA-MB-231. The assay can be described thus: Cytotoxicity against human MDA-MB-231 cells assessed as inhibition of cell growth incubated for 72 hrs by MTT assay. The conditions noted are these: MDA-MB-231, 72 h. For orientation: Formazan colour is commonly taken as a measure of viable cells.
The test system of the next assay is OVCAR-3. The assay is described as follows: Cytotoxicity against human OVCAR-3 cells assessed as inhibition of cell growth incubated for 72 hrs by MTT assay. The conditions noted are these: OVCAR-3, 72 h.
For the next assay, the system named is MDA-MB-435. The assay can be described thus: Cytotoxicity against human MDA-MB-435 cells assessed as inhibition of cell growth incubated for 72 hrs by MTT assay. The settings on record: MDA-MB-435, 72 h.

pIC50: −log10 of the molar value.

As to `CC1=C[C@]2(C)C(=C(C)[C@@H]3[C@@H]4C[C@H](C)C[C@H](C)[C@H]4[C@H]4Oc5ccc(cc5)C[C@]5(O)NC(=O)[C@]6(O[C@H]65)C(=O)[C@H]2[C@@H]43)[C@@H]1C`, the pIC50 – broadly, the IC50 on a negative log10 scale, so that one unit is a factor of ten – with MDA-MB-231 is 5.32; in the assay on OVCAR-3 it was 4.68; with MDA-MB-435, 4.77.

Take `CO[C@@H]1/C2=C(\O)[C@H]3[C@H]4[C@H](Oc5ccc(cc5)C[C@]1(O)NC2=O)[C@H]1[C@@H](C[C@H](C)C[C@@H]1C)[C@H]4C(C)=C1[C@H](C)C(C)=C[C@]13C`: the results for the pIC50 in the assay on MDA-MB-231, in the assay with OVCAR-3 and in the assay on MDA-MB-435 were 6.40, 6.00 and 5.74, respectively.

For the compound `CC1=C[C@]2(C)C(=C(C)[C@@H]3[C@@H]4C[C@H](C)C[C@H](C)[C@H]4[C@H]4Oc5ccc(cc5)C[C@@]5(O)C=C(C(=O)N5)C(=O)[C@H]2[C@@H]43)[C@@H]1C`, the pIC50 in the assay with MDA-MB-231 was 6.40; in the assay with OVCAR-3 it was 5.80; in the assay with MDA-MB-435, 5.82.

In the case of `CC(=O)O[C@]12Cc3ccc(cc3)O[C@@H]3[C@H]4[C@@H](C[C@H](C)C[C@@H]4C)[C@H]4C(C)=C5[C@H](C)C(C)=C[C@@]5(C)[C@@H](C(=O)[C@@]5(O[C@H]51)C(=O)N2)[C@@H]34`, the negative-log IC50 (pIC50) in the assay with MDA-MB-231 was 5.36; with OVCAR-3, 4.70; in the assay on MDA-MB-435, 4.70.

Regarding `CC1=C[C@]2(C)C(=C(C)[C@@H]3[C@@H]4C[C@H](C)C[C@H](C)[C@H]4[C@H]4Oc5ccc(cc5)CC(=O)[C@@H]5O[C@@]5(C(N)=O)C(=O)[C@H]2[C@@H]43)[C@@H]1C`, the negative logarithm of the IC50 (pIC50) was 5.49 in the assay with MDA-MB-231, 4.62 with OVCAR-3 and 4.74 in the assay with MDA-MB-435.

(Values after ChEMBL document CHEMBL5257048, “Embellicines C-E: Macrocyclic Alkaloids with a Cyclopenta[b]fluorene Ring System from the Fungus Sarocladium sp” (J Nat Prod, 2023).)
